Patent US20240262806A1, “INHIBITORS OF NLRP3” (PTC THERAPEUTICS, INC., priority 2021, published 2024)

Tested on: NLRP3 inflammasome
Experiment: IL-1β Secretion Assay (NLRP3-dependent IL-1β secretion in PMA-differentiated THP-1 cells, nigericin activation, HTRF)
Assay type: cell-based
Settings: Homo sapiens, THP-1, THP-1 cells, 100 ng/mL PMA 24 h, compound 20 h, 2.5 μM Nigericin 3 h; read-out: IC50 IL-1β Inhibition
Outline: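 IL-1β release, quantified by HTRF after nigericin activation of the NLRP3 inflammasome, was the read-out. A logistic fit of percent inhibition gave IC50.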

SMILES	IC50 [µM]
Cc1cc2c(-c3ccc(Br)cc3OC(F)(F)F)nnc(N[C@@H]3CCCN(C)C3)n2n1 [Compound I-374, (R)-4-(4-Bromo-2-(trifluoromethoxy)phenyl)-2-methyl-N-(1-methylpiperidin-3-yl)pyrazolo[1,5-d][1,2,4]triazin-7-amine]	0.001 to 0.01
COc1ccc(-c2nnc(N[C@@H]3CCCN(C)C3)c3cc(C)nn23)c(O)c1 [Compound I-351]	0.01 to 0.1
CNc1cc(C(F)(F)F)ccc1-c1nnc(N[C@@H]2CCCN(C)C2)c2ccccc12 [Compound I-125]	0.001 to 0.01
CN1CCC[C@@H](Nc2nnc(-c3ccc(C(F)(F)F)cc3C3CC3)c3ccncc23)C1 [Compound I-194, (R)-1-(2-Cyclopropyl-4-(trifluoromethyl)phenyl)-N-(1-methylpiperidin-3-yl)pyrido[3,4-d]pyridazin-4-amine]	0.001 to 0.01
OCCN1CCC[C@@H](Nc2nnc(-c3ccc(OC(F)F)cc3OC(F)F)c3cccn23)C1 [Compound I-614]	0.001 to 0.01
CN1CCC[C@@H](Nc2nnc(-c3ccc(N4CCCC4)cc3O)c3ccccc23)C1 [Compound I-93]	0.001 to 0.01
FC(F)Oc1cc(C(F)(F)F)ccc1-c1nnc(N[C@@H]2CCCN(C3CCC3)C2)c2cnccc12 [Compound I-312]	< 0.001
CN1CCC[C@@H](Nc2nnc(-c3ccc(C(F)(F)F)cc3C#N)c3ccncc23)C1 [Compound I-130]	0.001 to 0.01
Cc1cccc2c(N[C@@H]3CCCN(C)C3)nnc(-c3ccc(C(F)(F)F)cc3O)c12 [Compound I-8]	0.001 to 0.01
CN1CCC[C@@H](Nc2nnc(-c3ccc(C(F)(F)F)nc3O)c3ccccc23)C1 [Compound I-75]	0.01 to 0.1
CN1CCC[C@@H](Nc2nnc(-c3ccc(C(F)F)cc3F)c3ccncc23)C1 [Compound I-249]	0.01 to 0.1
CCN1CCC[C@@H](Nc2nnc(-c3ccc(C(F)(F)F)cc3O)c3ccncc23)C1 [Compound I-43]	< 0.001
FC(F)Oc1cc(C(F)(F)F)ccc1-c1nnc(N[C@@H]2CCCCCNC2)n2cccc12 [Compound I-324, 1-[2-(difluoromethoxy)-4-(trifluoromethyl)phenyl]-N-[(3R)-azocan-3-yl]pyrrolo[1,2-d][1,2,4]triazin-4-amine]	0.001 to 0.01
Oc1cc(C(F)(F)F)ccc1-c1nnc(N[C@@H]2CCCN(C3CCOC3)C2)c2cnccc12 (stereo partly shown) [Compound I-281]	< 0.001
CN1C[C@H](Nc2nnc(-c3ccc(C(F)(F)F)cc3O)c3ccncc23)CC(F)(F)C1 [Compound I-265]	0.001 to 0.01
C[C@@H](O)CNc1nnc(-c2c(O)cc(C3CC3)cc2F)c2cccn12 [Compound I-496]	0.01 to 0.1
Oc1cc(C(F)(F)F)ccc1-c1nnc(NC2CNC2)c2ccccc12 [Compound I-109]	0.01 to 0.1
COc1ccc(-c2nnc(N[C@@H]3CCCN(C)C3)n3nc(C4CC4)cc23)c(O)c1 [Compound I-347]	0.01 to 0.1
OCCN1CCC(CNc2nnc(-c3ccc(C(F)(F)F)cc3O)c3ccncc23)CC1 [Compound I-303]	0.001 to 0.01
Oc1cc(C2CC2)cc(F)c1-c1nnc(N[C@@H]2CCCN(CC(F)F)C2)n2cccc12 [Compound I-510]	0.01 to 0.1
CCN1CCC[C@@H](Nc2nnc(-c3ccc(OC(F)(F)F)cc3O)c3cc(C)nn23)C1 [Compound I-584]	< 0.001
CN1CCC[C@@H](Nc2nnc(-c3ccc(C(F)(F)F)cc3F)c3ccncc23)C1 [Compound I-128]	0.001 to 0.01
CN1C[C@H](F)C[C@@H](Nc2nnc(-c3ccc(Cl)cc3O)c3cncn23)C1 [Compound I-557]	0.001 to 0.01
Oc1cc(C(F)(F)F)ccc1-c1nnc(NC2CNCCOC2)c2ccncc12 (stereo not shown) [Compound I-230]	0.01 to 0.1
Oc1cc(Cl)ccc1-c1nnc(N[C@@H]2CCCN(CC(F)F)C2)n2cccc12 [Compound I-368]	0.01 to 0.1

SMILES	IC50 [µM]
Oc1cc(C(F)(F)F)ccc1-c1nnc(N[C@@H]2CCCN(C3CC3)C2)c2cnccc12 [Compound I-215, 2-[4-[[(3R)-1-cyclopropyl-3-piperidyl]amino]pyrido[3,4-d]pyridazin-1-yl]-5-(trifluoromethyl)phenol]	< 0.001
CN1CCC[C@@H](Nc2nnc(-c3ccc(C(F)(F)F)cc3)c3ccncc23)C1 [Compound I-166]	0.001 to 0.01
CC(=O)N1CCCC(Nc2nnc(-c3ccc(C(F)(F)F)cc3O)c3ccccc23)C1 (stereo not shown) [Compound I-64]	0.01 to 0.1
CN1C[C@H](F)C[C@@H](Nc2nnc(-c3ccc(C(F)(F)F)cc3OC(F)F)c3c(F)ccn23)C1 [Compound I-439]	0.001 to 0.01
Cc1ccc(-c2nnc(N[C@@H]3CCCN(CCO)C3)n3cccc23)c(O)c1 [Compound I-354]	< 0.001
CN1CCC[C@@H](Nc2nnc(-c3c(O)cc(C(F)(F)F)cc3C3CC3)c3ccncc23)C1 [Compound I-274, 3-Cyclopropyl-2-[4-[[(3R)-1-methyl-3-piperidyl]amino]pyrido[3,4-d]pyridazin-1-yl]-5-(trifluoromethyl)phenol]	0.001 to 0.01
CN1CCC[C@@H](Nc2nnc(-c3ccc(C(F)(F)F)cc3O)c3cncn23)C1 [Compound I-333, 2-[4-[[(3R)-1-Methyl-3-piperidyl]amino]imidazo[1,5-d][1,2,4]triazin-1-yl]-5-(trifluoromethyl)phenol]	< 0.001
C[C@H](O)CNc1nnc(-c2ccc(C(F)(F)F)cc2O)c2c(F)ccn12 [Compound I-595]	0.01 to 0.1
CN1CCC[C@@H](Nc2nnc(-c3ccc(F)cc3O)c3ccccc23)C1 [Compound I-16]	0.001 to 0.01
CN1CCC[C@@H](Nc2nnc(-c3ccc(C4CC4)cc3O)c3ccncc23)C1 [Compound I-89]	< 0.001
Oc1cc(C(F)(F)F)ccc1-c1nnc(N[C@@H]2CCCN(C3COC3)C2)c2cnccc12 [Compound I-271]	0.001 to 0.01
Cc1ccc(-c2nnc(N[C@@H]3CCCN(C)C3)c3ccccc23)c(O)c1C [Compound I-42]	< 0.001
Cc1cc2c(-c3ccc(C(F)(F)F)cc3OC(F)F)nnc(N[C@@H]3CCCN(C)C3)n2n1 [Compound I-330]	0.001 to 0.01
Cc1cc(F)c(-c2nnc(N[C@H]3C[C@@](C)(O)C3)n3cccc23)c(OC(F)F)c1 [Compound I-465]	0.1 to 0.3
CN1CCC[C@@H](Nc2nnc(-c3ccc(Cl)cc3OC(F)F)c3cccn23)C1 [Compound I-356, 1-[4-Chloro-2-(difluoromethoxy)phenyl]-N-[(3R)-1-methyl-3-piperidyl]pyrrolo[1,2-d][1,2,4]triazin-4-amine]	0.001 to 0.01
CN1C[C@H](F)C[C@@H](Nc2nnc(-c3c(O)cc(C(F)(F)F)cc3F)c3cccn23)C1 [Compound I-416]	0.001 to 0.01
Oc1cc(C(F)(F)F)ccc1-c1nnc(NC2CCNC2)c2ccccc12 (stereo not shown) [Compound I-6]	0.01 to 0.1
CCN1CCC[C@@H](Nc2nnc(-c3ccc(C(F)(F)F)cc3OC(F)F)c3c(F)ccn23)C1 [Compound I-566]	0.001 to 0.01
CCOc1cc(O)c(-c2nnc(N[C@@H]3CCCN(C)C3)n3cccc23)c(F)c1 [Compound I-630]	0.001 to 0.01
Cc1ccc(-c2nnc(N[C@@H]3CCCN(C)C3)n3cccc23)c(C(F)F)c1 [Compound I-425, 1-[2-(Difluoromethyl)-4-methyl-phenyl]-N-[(3R)-1-methyl-3-piperidyl]pyrrolo[1,2-d][1,2,4]triazin-4-amine]	0.01 to 0.1
CN1C[C@H](O)C[C@@H](Nc2nnc(-c3ccc(C(F)(F)F)cc3O)c3ccccc23)C1 [Compound I-84]	0.01 to 0.1
Oc1cc(C(F)(F)F)ccc1-c1nnc(N[C@@H]2CCCNC2)c2ccccc12 [Compound I-20, 2-[4-[[(3R)-3-Piperidyl]amino]phthalazin-1-yl]-5-(trifluoromethyl)phenol]	< 0.001
CN1CCC[C@@H](Nc2nnc(-c3ccccc3O)c3ccccc23)C1 [Compound I-33]	0.001 to 0.01
OCCN1CCC[C@@H](Nc2nnc(-c3ccc(C(F)(F)F)cc3OC(F)F)c3cnccc23)C1 [Compound I-238]	0.01 to 0.1
